Results on eight molecules are retold here after ChEMBL document CHEMBL5233247, “Recent advances in DNA gyrase-targeted antimicrobial agents” (Eur J Med Chem, 2020).

Each structure is given as a SMILES string. ≈ marks a conversion by molar mass, not a printed value. Where “and” joins values, the source holds several entries; their conditions need not be identical. Equal entries are not always repeated.

Assay [1] has as its system Staphylococcus aureus. As to the kind of experiment: Antimicrobial activity against Staphylococcus aureus MTCC 96 assessed as zone of inhibition incubated for 24 hrs by agar well diffusion method. It counts as functional.
In a further assay the test system is Streptococcus pyogenes. Put plainly: Antimicrobial activity against […] MTCC 442 assessed as zone of inhibition incubated for 24 hrs by agar well diffusion method. Format: functional. On the technique in general: Agar diffusion results depend on both activity and mobility in agar.
In assay [2] the test system is Escherichia coli. Put plainly: Antimicrobial activity against Escherichia coli MTCC 443 assessed as zone of inhibition incubated for 24 hrs by agar well diffusion method. It counts as functional.
A further assay deals with Pseudomonas aeruginosa. As to the kind of experiment: Antimicrobial activity against Pseudomonas aeruginosa MTCC 424 assessed as zone of inhibition incubated for 24 hrs by agar well diffusion method. It counts as functional.
The target of assay [3] is T1, DNA gyrase (Staphylococcus aureus, UniProt P0A0K8+P20831). Put plainly: Inhibition of Staphylococcus aureus DNA gyrase. Format: protein-complex assay.
T1 sequence (P0A0K8 whole entry): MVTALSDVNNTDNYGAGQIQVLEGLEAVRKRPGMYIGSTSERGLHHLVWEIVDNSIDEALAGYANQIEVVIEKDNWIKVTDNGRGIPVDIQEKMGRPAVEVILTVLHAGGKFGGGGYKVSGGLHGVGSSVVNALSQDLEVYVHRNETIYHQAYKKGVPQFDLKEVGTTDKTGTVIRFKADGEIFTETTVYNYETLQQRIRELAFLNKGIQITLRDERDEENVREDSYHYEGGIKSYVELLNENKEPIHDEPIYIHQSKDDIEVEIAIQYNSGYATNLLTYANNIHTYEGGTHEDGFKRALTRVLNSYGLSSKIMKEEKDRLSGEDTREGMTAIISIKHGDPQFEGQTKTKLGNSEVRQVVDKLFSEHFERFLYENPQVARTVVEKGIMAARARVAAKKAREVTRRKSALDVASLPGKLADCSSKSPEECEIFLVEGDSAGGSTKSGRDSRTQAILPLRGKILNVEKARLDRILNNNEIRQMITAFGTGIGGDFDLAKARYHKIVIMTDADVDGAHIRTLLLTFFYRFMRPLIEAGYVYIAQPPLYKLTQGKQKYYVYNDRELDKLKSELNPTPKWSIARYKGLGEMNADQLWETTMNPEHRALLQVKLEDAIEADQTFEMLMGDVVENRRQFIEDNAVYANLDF
T1 sequence (P20831 whole entry): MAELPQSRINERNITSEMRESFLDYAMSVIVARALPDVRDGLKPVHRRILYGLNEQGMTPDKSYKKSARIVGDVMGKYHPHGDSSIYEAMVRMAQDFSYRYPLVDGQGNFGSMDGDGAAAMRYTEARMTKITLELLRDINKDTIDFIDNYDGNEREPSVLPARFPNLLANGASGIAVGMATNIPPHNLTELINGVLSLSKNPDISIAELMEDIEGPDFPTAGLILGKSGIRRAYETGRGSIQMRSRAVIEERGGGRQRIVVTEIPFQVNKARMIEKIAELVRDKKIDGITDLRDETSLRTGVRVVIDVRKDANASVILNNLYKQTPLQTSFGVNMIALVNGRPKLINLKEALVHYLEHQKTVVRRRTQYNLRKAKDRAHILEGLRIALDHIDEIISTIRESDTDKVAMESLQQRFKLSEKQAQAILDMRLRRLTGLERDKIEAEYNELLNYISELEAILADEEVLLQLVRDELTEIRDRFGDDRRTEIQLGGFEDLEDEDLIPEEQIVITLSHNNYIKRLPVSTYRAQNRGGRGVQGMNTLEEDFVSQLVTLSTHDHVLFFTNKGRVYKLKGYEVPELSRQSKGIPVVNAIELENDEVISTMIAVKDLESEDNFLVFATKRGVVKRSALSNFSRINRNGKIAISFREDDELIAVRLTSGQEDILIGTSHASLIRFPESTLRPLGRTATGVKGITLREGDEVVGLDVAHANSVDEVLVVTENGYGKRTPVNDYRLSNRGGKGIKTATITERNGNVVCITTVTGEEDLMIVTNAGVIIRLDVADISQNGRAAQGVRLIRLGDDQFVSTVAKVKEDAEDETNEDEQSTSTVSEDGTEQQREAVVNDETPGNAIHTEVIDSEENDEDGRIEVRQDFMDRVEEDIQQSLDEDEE
Assay [4] relates to Escherichia coli. As to the kind of experiment: Antibacterial activity against Escherichia coli assessed as zone of inhibition. It counts as functional.
Assay [5] concerns the target DNA gyrase (Escherichia coli, UniProt P0AES4+P0AES6). As to the kind of experiment: Inhibition of Escherichia coli DNA gyrase. It counts as protein-complex assay.
Assay [6] concerns Escherichia coli. As to the kind of experiment: Antibacterial activity against Escherichia coli. It counts as functional.
The next assay relates to Salmonella typhimurium. Put plainly: Antibacterial activity against Salmonella typhimurium. Format: functional, Salmonella enterica subsp. enterica serovar Typhimurium. The conditions noted are these: Salmonella enterica.
The subject of assay [7] is Bacillus subtilis. Put plainly: Antibacterial activity against Bacillus subtilis. It counts as functional.
Assay [8] deals with Micrococcus luteus. As to the kind of experiment: Antibacterial activity against Micrococcus luteus. Format: functional.
Assay [9] deals with Staphylococcus aureus. As to the kind of experiment: Antimicrobial activity against methicillin-resistant Staphylococcus aureus MTCC 96. Format: functional.
For assay [10], the system named is Enterococcus faecalis. Put plainly: Antimicrobial activity against Enterococcus faecalis. Format: functional.
Assay [11] concerns Enterococcus faecalis. As to the kind of experiment: Antimicrobial activity against vancomycin-sensitive Enterococcus faecalis assessed as inhibition of bacterial growth by CLSI broth micro plate assay. It counts as functional.
Assay [12] concerns Staphylococcus aureus. As to the kind of experiment: Antimicrobial activity against methicillin-sensitive Staphylococcus aureus assessed as inhibition of bacterial growth by CLSI broth micro plate assay. It counts as functional.
For assay [13], the system named is Enterococcus faecalis. As to the kind of experiment: Antimicrobial activity against vancomycin-resistant Enterococcus faecalis assessed as inhibition of bacterial growth by CLSI broth micro plate assay. It counts as functional.
The test system of assay [14] is Staphylococcus aureus. As to the kind of experiment: Antimicrobial activity against methicillin-resistant Staphylococcus aureus assessed as inhibition of bacterial growth by CLSI broth micro plate assay. It counts as functional.
Assay [15] has as its target T1, DNA gyrase. As to the kind of experiment: Inhibition of Staphylococcus aureus DNA gyrase assessed as relaxation of pBR322 DNA by supercoiling assay. Format: protein-complex assay.
Assay [16] deals with Escherichia coli. Put plainly: Antimicrobial activity against Escherichia coli assessed as inhibition of visible growth incubated for 24 hrs by agar-dilution method. Format: functional.
Assay [17] deals with Staphylococcus aureus. Put plainly: Antimicrobial activity against Staphylococcus aureus assessed as inhibition of visible growth incubated for 24 hrs by agar-dilution method. Format: functional.
Assay [18] deals with Salmonella enterica subsp. enterica serovar Gallinarum. As to the kind of experiment: Antimicrobial activity against Salmonella gallinarum assessed as inhibition of visible growth incubated for 24 hrs by agar-dilution method. Format: functional.
In the next assay the test system is Listeria monocytogenes. As to the kind of experiment: Antimicrobial activity against Listeria monocytogenes assessed as inhibition of visible growth incubated for 24 hrs by agar-dilution method. It counts as functional.
Assay [19] concerns Staphylococcus aureus. Put plainly: Antimicrobial activity against Staphylococcus aureus ATCC 29213 incubated for by the twofold serial agar dilution technique. Format: functional. For orientation: In agar dilution, organisms are placed on agar that contains the substance at set levels.
The subject of assay [20] is Bacillus subtilis. Put plainly: Antimicrobial activity against Bacillus subtilis ATCC 6633 incubated for by the twofold serial agar dilution technique. Format: functional.
Assay [21] concerns Staphylococcus aureus. Put plainly: Antimicrobial activity against Staphylococcus aureus ATCC 4163 incubated for by the twofold serial agar dilution technique. Format: functional.
Assay [22] relates to Staphylococcus aureus. Put plainly: Antimicrobial activity against Staphylococcus aureus ATCC 6538 incubated for by the twofold serial agar dilution technique. Format: functional.
The test system of assay [23] is Staphylococcus epidermidis. As to the kind of experiment: Antimicrobial activity against Staphylococcus epidermidis ATCC 12228 incubated for by the twofold serial agar dilution technique. It counts as functional.
In assay [24] the test system is Staphylococcus aureus. Put plainly: Antimicrobial activity against Staphylococcus aureus ATCC 25923 incubated for by the twofold serial agar dilution technique. Format: functional.
The test system of assay [25] is Micrococcus luteus. As to the kind of experiment: Antimicrobial activity against Micrococcus luteus ATCC 9341 incubated for by the twofold serial agar dilution technique. It counts as functional.
The next assay deals with Bacillus cereus. Put plainly: Antimicrobial activity against Bacillus cereus ATCC 11778 incubated for by the twofold serial agar dilution technique. Format: functional.
The test system of assay [26] is Micrococcus luteus. As to the kind of experiment: Antimicrobial activity against Micrococcus luteus ATCC 10240 incubated for by the twofold serial agar dilution technique. Format: functional.

Usually IC50 stands for the midpoint of a concentration-inhibition curve. Take `COc1ccc2ccc(F)c(CC(=O)N/N=C/c3ccc(F)cc3F)c2n1`: the “inhibition zone (IZ)” value in the assay on Staphylococcus aureus [1] came out at 18 mm; in the assay with Streptococcus pyogenes, 20 mm; in the assay on Escherichia coli [2] it was 21 mm; in the assay on Pseudomonas aeruginosa, 20 mm. The same molecule gave an IC50 against DNA gyrase [3] of 375 µM.

In the case of `CCn1cc(-c2nc(/N=C/c3ccc(Br)cc3)n[nH]2)c(=O)c2cc(Br)c(C)nc21`, the “inhibition zone (IZ)” value with Escherichia coli [4] came to 23 mm. The same molecule showed an IC50 against DNA gyrase [5] of 3.37 µM.

What is called MIC is the least concentration at which growth counts as inhibited. On to `COc1c(NC(=O)c2ccc(NC(=O)c3ccc(NC(=O)[C@H](CC#N)NC(=O)c4ccc(NC(=O)/C(C)=C/c5ccc(C(F)(F)F)cc5)cc4)cc3)c(OC)c2O)ccc(C(=O)O)c1O`, for which the MIC with Escherichia coli [6] is 0.14 µM (≈ 0.125 µg/mL); with Salmonella typhimurium, 0.07 µM (≈ 0.0626 µg/mL); against Bacillus subtilis [7], 0.28 µM (≈ 0.251 µg/mL); in the assay with Micrococcus luteus [8], 0.238 µM and 0.112 µM.

For the molecule `Cc1ccc(C(=O)Nc2ccc(NC(=O)CCC(=O)NN)cc2)o1`, in the assay on Staphylococcus aureus [9], the lowest concentration to inhibit growth (MIC) was 18.9 µM (≈ 6.25 µg/mL).

The molecule `CC(C)COc1cc(C(=O)NCC(=O)O)ccc1NC(=O)c1cc(Cl)c(Cl)[nH]1` yielded an MIC in the assay with Enterococcus faecalis [10] of 12.5 µM (≈ 5.35 µg/mL). The molecule also registered an IC50 at DNA gyrase [5] of 47 µM.

As to `COc1cc2c(cc1OCCCC(=O)Nc1cc(NC(=O)c3ccc4sccc4c3)n(C)c1)N=C[C@@H]1CCCN1C2=O`, the MIC with Enterococcus faecalis [11], with Staphylococcus aureus [12], in the assay with Enterococcus faecalis [13] and in the assay on Staphylococcus aureus [14] was 0.5 µg/mL (≈ 0.854 µM) each time. Moreover, the IC50 at DNA gyrase [15] was 1.62 µM.

For `Cc1ccc(-n2nc(C)c(C(=O)Oc3ncn(-c4ccccc4)n3)c2Cl)cc1`, the MIC (with Escherichia coli [16]; with Staphylococcus aureus [17]; in assay [18]; in the assay on Listeria monocytogenes) was 0.5 µg/mL (≈ 1.27 µM) in each case.

Take `S=C(NCCc1c[nH]c2ccccc12)Nc1ccc(Cl)c(Cl)c1`: the MIC was 6.25 µg/mL (≈ 17.2 µM) in the assay with Staphylococcus aureus [19]; 12.5 µg/mL (≈ 34.3 µM) in the assay on Bacillus subtilis [20]; 6.25 µg/mL (≈ 17.2 µM) against Staphylococcus aureus [21]; 6.25 µg/mL (≈ 17.2 µM) against Staphylococcus aureus [22]; 12.5 µg/mL (≈ 34.3 µM) in [23]; 6.25 µg/mL (≈ 17.2 µM) in the assay on Staphylococcus aureus [24]. Also, the MIC against Micrococcus luteus [25], with Bacillus cereus and against Micrococcus luteus [26] was 6.25 µg/mL (≈ 17.2 µM) throughout.
